What was measured:
HepG2 [1] = experiment: Antiproliferative activity against human HepG2 cells assessed as reduction in cell viability by SRB assay; type: functional, cell-based
Carbonic anhydrase 12 [2] = biological target: T1, Carbonic anhydrase 12 (Homo sapiens, UniProt O43570); experiment: Binding affinity to human recombinant CA XII assessed as inhibition constant
MCF7 [3] = experiment: Antiproliferative activity against human MCF7 cells assessed as reduction in cell viability by SRB assay; type: functional, cell-based
Carbonic anhydrase 9 [4] = biological target: T2, Carbonic anhydrase 9 (Homo sapiens, UniProt Q16790); experiment: Binding affinity to human recombinant CA IX assessed as inhibition constant
Carbonic anhydrase 2 [5] = biological target: T3, Carbonic anhydrase 2 (Homo sapiens, UniProt P00918); experiment: Binding affinity to human CA II assessed as inhibition constant
Carbonic anhydrase 9 [6] = biological target: T2, Carbonic anhydrase 9; experiment: Binding affinity human CA IX assessed as inhibition constant
Carbonic anhydrase 12 [7] = biological target: T1, Carbonic anhydrase 12; experiment: Binding affinity to human CA XII assessed as inhibition constant
Carbonic anhydrase 2 [8] = biological target: T3, Carbonic anhydrase 2; experiment: Inhibition of human Carbonic anhydrase 2
MDA-MB-231 [9] = experiment: Anticancer activity against human MDA-MB-231 cells assessed as reduction in cell viability measured after 72 hrs by MTT assay; type: functional, cell-based; settings: MDA-MB-231, 72 h
HepG2 [10] = experiment: Anticancer activity against human HepG2 cells assessed as reduction in cell viability measured after 72 hrs by MTT assay; type: functional, cell-based; settings: HepG2, 72 h
MCF7 [11] = experiment: Anticancer activity against human MCF7 cells assessed as reduction in cell viability measured after 72 hrs by MTT assay; type: functional, cell-based; settings: MCF7, 72 h
[12] = biological target: Carbonic anhydrase 5B, mitochondrial (Homo sapiens, UniProt Q9Y2D0); experiment: Binding affinity to human CA VB-catalysed CO2 hydration activity assessed as inhibition constant pre-incubated for 15 mins by stopped-flow instrument method
Sequence of Carbonic anhydrase 5B, mitochondrial (Q9Y2D0 whole entry): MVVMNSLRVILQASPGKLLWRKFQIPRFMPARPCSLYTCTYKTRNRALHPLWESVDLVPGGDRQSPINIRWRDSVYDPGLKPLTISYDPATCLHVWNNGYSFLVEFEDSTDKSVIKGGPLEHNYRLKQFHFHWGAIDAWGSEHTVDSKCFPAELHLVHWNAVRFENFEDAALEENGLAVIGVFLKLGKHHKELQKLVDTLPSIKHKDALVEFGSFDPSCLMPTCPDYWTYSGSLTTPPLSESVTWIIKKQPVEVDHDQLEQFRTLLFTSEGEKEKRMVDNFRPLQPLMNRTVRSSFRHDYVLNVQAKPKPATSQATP

MCF7 [13] = experiment: cells; type: functional, cell-based; settings: Homo sapiens
Description: Cytotoxicity against human MCF7 cells

HCT-116 = experiment: cells; type: functional, cell-based; settings: Homo sapiens
Description: Cytotoxicity against human HCT-116 cells

Carbonic anhydrase 1 [14] = biological target: T4, Carbonic anhydrase 1 (Homo sapiens, UniProt P00915); experiment: Binding affinity to human CA I assessed as inhibition constant
T4 sequence (P00915 whole entry): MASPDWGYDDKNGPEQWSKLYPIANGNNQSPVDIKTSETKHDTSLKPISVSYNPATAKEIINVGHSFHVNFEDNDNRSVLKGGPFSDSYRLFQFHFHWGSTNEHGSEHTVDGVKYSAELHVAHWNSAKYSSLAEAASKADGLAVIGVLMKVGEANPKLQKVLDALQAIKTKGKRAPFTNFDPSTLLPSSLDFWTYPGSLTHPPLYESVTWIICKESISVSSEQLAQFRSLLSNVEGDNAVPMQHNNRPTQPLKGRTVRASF

Carbonic anhydrase 9 [15] = biological target: T2, Carbonic anhydrase 9; experiment: Inhibition of human Carbonic anhydrase IX
Carbonic anhydrase 4 = Carbonic anhydrase 4 (Homo sapiens, UniProt P22748); experiment: Binding affinity to human CA4 assessed as inhibition constant
Sequence of Carbonic anhydrase 4 (P22748 whole entry): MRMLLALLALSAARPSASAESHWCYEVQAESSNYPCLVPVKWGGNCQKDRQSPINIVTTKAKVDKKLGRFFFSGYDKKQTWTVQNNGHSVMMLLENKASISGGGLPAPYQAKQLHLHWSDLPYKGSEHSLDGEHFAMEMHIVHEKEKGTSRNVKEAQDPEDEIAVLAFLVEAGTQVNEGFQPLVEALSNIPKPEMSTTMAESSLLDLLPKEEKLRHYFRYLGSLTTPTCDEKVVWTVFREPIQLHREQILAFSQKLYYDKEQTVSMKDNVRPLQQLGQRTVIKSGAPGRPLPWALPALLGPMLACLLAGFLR

MCF7 [16] = experiment: Anticancer activity against human MCF7 cells assessed as reduction in cell viability under normoxia condition; type: functional, cell-based
MDA-MB-231 [17] = experiment: Anticancer activity against human MDA-MB-231 cells assessed as reduction in cell viability under hypoxia condition; type: functional, cell-based
[18] = Inhibition of Hsp70 (unknown origin); parameters: species or system Homo sapiens
MDA-MB-231 [19] = experiment: Anticancer activity against human MDA-MB-231 cells assessed as reduction in cell viability under normoxia condition; type: functional, cell-based
MCF7 [20] = experiment: Anticancer activity against human MCF7 cells assessed as reduction in cell viability under hypoxia condition; type: functional, cell-based
Carbonic anhydrase 1 [21] = biological target: T4, Carbonic anhydrase 1; experiment: Inhibition of human Carbonic anhydrase 1
Homo sapiens [22] = organism: Homo sapiens; experiment: Selectivity ratio of IC50 for human CA IX to IC50 for human CA II
Homo sapiens [23] = organism: Homo sapiens; experiment: Selectivity ratio of IC50 for human CA I to IC50 for human CA II
PC-3 = experiment: Cytotoxicity against human PC-3 cells assessed as reduction in cell viability incubated for 24 hrs by MTT assay; type: functional, cell-based; settings: PC-3, 24 h
HT-29 = experiment: Cytotoxicity against human HT-29 cells assessed as reduction in cell viability incubated for 24 hrs by MTT assay; type: functional, cell-based; settings: HT-29, 24 h
Carbonic anhydrase 2 [24] = biological target: T3, Carbonic anhydrase 2; experiment: Binding affinity to human Carbonic anhyrase 2 assessed as inhibition constant pre-incubated for 10 mins by stopped-flow instrument based assay
Carbonic anhydrase 1 [25] = biological target: T4, Carbonic anhydrase 1; experiment: Binding affinity to human Carbonic anhyrase 1 assessed as inhibition constant pre-incubated for 10 mins by stopped-flow instrument based assay

T1 sequence (O43570 whole entry): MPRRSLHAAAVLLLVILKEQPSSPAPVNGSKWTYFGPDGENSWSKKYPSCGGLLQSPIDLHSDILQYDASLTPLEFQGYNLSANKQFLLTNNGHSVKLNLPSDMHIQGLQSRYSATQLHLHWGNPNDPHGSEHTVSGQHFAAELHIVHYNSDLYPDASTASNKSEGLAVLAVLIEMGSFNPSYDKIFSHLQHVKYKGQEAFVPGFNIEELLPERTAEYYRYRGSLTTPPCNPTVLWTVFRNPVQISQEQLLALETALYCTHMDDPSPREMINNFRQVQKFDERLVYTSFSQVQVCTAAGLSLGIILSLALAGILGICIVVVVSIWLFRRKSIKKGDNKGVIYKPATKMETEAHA

Nc1nn(C(=O)C23CC4CC(CC(C4)C2)C3)c(N)c1/N=N/c1ccccc1
IC50 (HepG2 [1]): < 5000 nM | Ki (Carbonic anhydrase 12 [2]): 140 nM | IC50 (MCF7 [3]): < 5000 nM | Ki (Carbonic anhydrase 9 [4]): 85 nM

CCOC(=O)c1sc2ncnc(Nc3ccc(S(N)(=O)=O)cc3)c2c1C
Ki (Carbonic anhydrase 2 [5]): 8.6 nM | Ki (Carbonic anhydrase 9 [6]): 13.8 nM | Ki (Carbonic anhydrase 12 [7]): 19 nM

NS(=O)(=O)c1ccc(CCNC(=O)c2ccc3c(c2)C(=O)c2ccccc2C3=O)cc1
IC50 (Carbonic anhydrase 2 [8]): 21.2 nM

NS(=O)(=O)c1ccc(NC(=S)NC(=O)c2ccc3c(c2)C(=O)c2ccccc2C3=O)cc1
IC50 (MDA-MB-231 [9]): 46200 nM | IC50 (HepG2 [10]): 28100 nM | IC50 (MCF7 [11]): 69400 nM

Cn1c(N)c(NCc2cc(I)ccc2O)c(=O)n(C)c1=O
Ki (Carbonic anhydrase 2 [5]): 16.3 nM

Cc1ccc(C)c(NC(=O)SOS(N)(=O)=O)c1
Ki [12]: 516 nM

Cc1nn(-c2ccc(S(N)(=O)=O)cc2)c2c1C(c1ccc(F)cc1F)C(C#N)=C(N)O2 (centres undefined)
IC50 (MCF7 [13]): 1690 nM | IC50 (HCT-116): 1300 nM | Ki (Carbonic anhydrase 9 [6]): 19 nM

NS(=O)(=O)c1ccc(C(=O)Nc2ncc(C(=O)NCCN3CCOCC3)s2)cc1
Ki (Carbonic anhydrase 2 [5]): 6.51 nM | Ki (Carbonic anhydrase 1 [14]): 45.9 nM

COc1ccccc1NC(=O)SOS(N)(=O)=O
Ki [12]: 345 nM

NS(=O)(=O)c1ccc(C(=O)Nc2nc(C(=O)OCCN3CCOCC3)cs2)cc1
Ki (Carbonic anhydrase 2 [5]): 5.97 nM | Ki (Carbonic anhydrase 1 [14]): 49.8 nM

Clc1ccccc1-c1nc2cc(-c3ccc4[nH]c(-c5ccccc5Cl)nc4c3)ccc2[nH]1
IC50 (Carbonic anhydrase 9 [15]): 5230 nM

C/C(=N\Nc1nc(-c2ccc(C)cc2)cs1)c1nnn(-c2ccc(S(N)(=O)=O)cc2)c1C
Ki (Carbonic anhydrase 1 [14]): 40.6 nM

Cc1c(/C=N/Nc2nc(-c3ccc(F)cc3)cs2)nnn1-c1cccc(S(N)(=O)=O)c1
Ki (Carbonic anhydrase 4): 88 nM

COc1cccc(NC(=O)Nc2cccc(OC)c2)c1
IC50 (MCF7 [16]): 3700 nM | IC50 (MDA-MB-231 [17]): 12400 nM | IC50 [18]: 15300 nM | IC50 (MDA-MB-231 [19]): 6300 nM | IC50 (MCF7 [20]): 1100 nM

NC1=C(n2c(-c3ccc(Cl)cc3)cs/c2=N\C(=O)c2c(F)cccc2F)C(=O)c2ccccc2C1=O
Ki (Carbonic anhydrase 1 [14]): 67.9 nM

CCCCCCCCn1c2ccccc2c2cc(/N=C/c3ccc(O)c(O)c3)ccc21
IC50 (Carbonic anhydrase 1 [21]): 32100 nM

Cc1nn(-c2ccc(S(N)(=O)=O)cc2)c2c1C(c1c(F)cccc1F)C(C#N)=C(N)O2 (centres undefined)
Ratio IC50 (Homo sapiens [22]): 7.42 | Ratio IC50 (Homo sapiens [23]): 14.3 | Ki (Carbonic anhydrase 9 [6]): 19 nM

Cc1ccc(C(C)C)c(OCc2cn(CCCCOc3ccc4ccc(=O)oc4c3)nn2)c1
IC50 (PC-3): 9400 nM | IC50 (HT-29): 12100 nM

COc1cccc(C(=O)/C=C/c2cn(Cc3cn(-c4ccc(S(N)(=O)=O)cc4)nn3)c3ccccc23)c1
Ki (Carbonic anhydrase 2 [24]): 716 nM | Ki (Carbonic anhydrase 1 [25]): 38.3 nM

CCCCCCCCn1c2ccccc2c2cc(/N=C/c3cccc(O)c3O)ccc21
IC50 (Carbonic anhydrase 2 [8]): 21800 nM
